≈ marks a conversion by molar mass, not a printed value.
Experiments:
S. aureus Smith = test: Protection of mice from experimental infection; format: in vivo; conditions: male mice; intraperitoneal inoculation 2.8×10⁶ cells/mouse (123×LD₅₀); oral administration one hour after inoculation; survival ratio at 7 days, probit method
Experimental: (§1) Experimental infection was caused by intraperitoneal inoculation of respective bacteria to male mice. One hour after the inoculation, a test compound was orally administered to the mice. The therapeutic effect of each test compound was evaluated by reference to the 50% effective dose (ED₅₀) which was based on the survival ratio at 7 days after the administration according to the probit method [Proc. Soc. Exp. Med., Vol. 57, p 261-264 (1944)]. The minimum inhibitory concentration (MIC) of the infectious bacteria used was also determined. […]

E. coli KC-14 = test: Protection of mice from experimental infection; format: in vivo; conditions: oral administration one hour after inoculation, survival ratio at 7 days
Experimental: as §1

S. aureus MRSA Y-238 = test: Protection of mice from experimental infection; format: in vivo; conditions: oral administration one hour after inoculation, survival ratio at 7 days
Experimental: as §1

L.monocytogenes VTU-206 = test: In vitro antibacterial activity (MIC), Japan Society of Chemotherapy Standard; format: cell-based; conditions: Listeria monocytogenes, VTU206; inoculated cells 10⁶ cells/ml; medium supplemented with 10% horse blood
Summary of the method: (§2)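 Inoculum 10⁶ cells/ml; JSC standard MIC, µg/ml read-out; 10% horse blood added to medium for designated strains.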

[1] = test system: Proteus vulgaris IFO 3988; test: as above; format: cell-based; conditions: IFO3988, inoculated cells 10⁶ cells/ml
Summary of the method: as §2

[2] = test system: Citrobacter freundii IFO 12681; test: as above; format: cell-based; conditions: IFO12681, inoculated cells 10⁶ cells/ml
Summary of the method: as §2

E. faecium EFMY-207 = test: as above; format: cell-based; conditions: Enterococcus faecium, EFMY207; quinolone resistant bacteria; inoculated cells 10⁶ cells/ml
Summary of the method: as §2

P. mirabilis IFO 3849 = test: as above; format: cell-based; conditions: Proteus mirabilis, IFO3849; inoculated cells 10⁶ cells/ml
Summary of the method: as §2

## CC1COc2c(N3CCN(C)CC3)c(F)cc3c(=O)c(C(=O)O)cn1c23 (stereo not shown) [Comp. Ex. 2, 9-fluoro-2,3-dihydro-3-methyl-10-(4-methyl-1-piperazinyl)-7-oxo-7H-pyrido [1. 2. 3-de) [1.4] benzoxazine-6-carboxylic acid, reference compound]
S. aureus Smith
  ED₅₀ (mg/mouse) (95% confidence limit): 0.208(0.137-0.344) mg/mouse
E. coli KC-14; Table 3-1: male mice, intraperitoneal inoculation 5.0×10⁶ cells/mouse (744×LD₅₀)
  ED₅₀ (mg/mouse) (95% confidence limit): 0.012(0.009-0.018) mg/mouse
E. coli KC-14; Table 3-2: male mice, intraperitoneal inoculation (744×LD₅₀)
  ED₅₀ (mg/mouse) (95% confidence limit): 0.012(0.009-0.018) mg/mouse
S. aureus MRSA Y-238; Table 3-1: male mice, intraperitoneal inoculation 7.5×10⁶ cells/mouse (185×LD₅₀)
  ED₅₀ (mg/mouse) (95% confidence limit): > 16 mg/mouse
S. aureus MRSA Y-238; Table 3-2: male mice, intraperitoneal inoculation 7.5×10⁵ cells/mouse (185×LD₅₀)
  ED₅₀ (mg/mouse) (95% confidence limit): > 16 mg/mouse
L.monocytogenes VTU-206
  MIC: 3.13 µg/mL (≈ 8.66 µM)
[1]
  MIC: 0.1 µg/mL (≈ 0.277 µM)
[2]
  MIC: 0.1 µg/mL (≈ 0.277 µM)
E. faecium EFMY-207
  MIC: 100 µg/mL (≈ 277 µM)
P. mirabilis IFO 3849
  MIC: 0.39 µg/mL (≈ 1.08 µM)

— patent EP0677522A1, “8-METHOXYQUINOLONECARBOXYLIC ACID DERIVATIVE” (priority 1992, dated 1994)
